In patent US20190093170A1, “USE OF TRANSLATIONAL PROFILING TO IDENTIFY TARGET MOLECULES FOR THERAPEUTIC TREATMENT” (THE REGENTS OF THE UNIVERSITY OF CALIFORNIA, priority 2013, published 2019):

Tested on: PC3 human prostate cancer cells
Experiment: RNA-seq mRNA abundance (part of ribosome profiling experiment);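 also: average poly(A) RNA-seq read density per codon over the coding sequence, excluding 15 initial and 5 final codons, mapped to hg19 transcripts, taken as mRNA abundance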
Format: cell-based
Settings: for PP242 mRNA: 3-hour treatment with PP242 (2.5 μM) in PC3 cells
Experimental: Cells were subsequently treated with cycloheximide (100 μg ml^−1; Sigma) and detergent lysis was performed in the dish. The lysate was treated with DNase and clarified, and a sample was taken for RNA-seq analysis. Lysates were subjected to ribosome footprinting by nuclease treatment. Ribosome-protected fragments were purified, and deep sequencing libraries were generated from these fragments, as well as from poly(A) mRNA purified from non-nuclease-treated lysates. These libraries were analyzed by sequencing on an Illumina GAII.
Ribosome footprint and RNA-seq sequencing reads were aligned against a library of transcripts from the UCSC Known Genes database GRCh37/hg19. The first 25 nucleotides of each read were aligned using Bowtie and this initial alignment was then extended to encompass the full fragment-derived portion of the sequencing read while excluding the linker sequence. Read density profiles were then constructed for the canonical transcript of each gene, using only reads with 0 or 1 total mismatches between the read sequence and the reference sequence, comprised of the transcript fragment followed by the linker sequence. Footprint reads were assigned to an A site nucleotide at position +15 to +17 of the alignment, based on the total fragment length; mRNA reads were assigned to the first nucleotide of the alignment. The average read density per codon was then computed for the coding sequence of each transcript, excluding the first 15 and last 5 codons, which can display atypical ribosome accumulation.
Average read density was used as a measure of mRNA abundance (RNA-seq reads) and of protein synthesis (ribosome profiling reads). For most analyses, genes were filtered to require at least 256 reads in the relevant RNA-seq samples. Translational efficiency was computed as the ratio of ribosome footprint read density to RNA-seq read density, scaled to normalize the translational efficiency of the median gene to 1.0 after excluding regulated genes (log 2 fold-change+1.5 after normalizing for the all-gene median). Changes in protein synthesis, mRNA abundance and translational efficiency were similarly computed as the ratio of read densities between different samples, normalized to give the median gene a ratio of 1.0. This normalization corrects for differences in the absolute number of sequencing reads obtained for different libraries.

CC(C)n1nc(-c2cc3cc(O)ccc3[nH]2)c2c(N)ncnc21 [PP242]
PP242 mRNA (gene ACD): 0.20
mRNA (gene ACTG1): 0.28
mRNA (gene AGRN): 0.50
mRNA (gene ALKBH7): 0.51
mRNA (gene AP2A1): 0.42
mRNA (gene ARD1A): 0.03
mRNA (gene ATP5G2): 0.17
PP242 mRNA (gene C17orf28): 0.21
mRNA (gene C21orf66): −0.31
PP242 mRNA (gene CCNA1): −0.33
mRNA (gene CCNI): 0.24
mRNA (gene CD44): 0.43
mRNA (gene CIRBP): 0.54
mRNA (gene CLPTM1): 0.41
mRNA (gene COL6A2): 0.57
mRNA (gene CRTAP): 0.33
PP242 mRNA (gene DDX51): 0.17
PP242 mRNA (gene DGCR2): 0.05
mRNA (gene ECSIT): 0.26
PP242 mRNA (gene EEF1A1): 0.29
mRNA (gene EEF1A2): 0.40
mRNA (gene EEF1D): 0.35
mRNA (gene EEF1G): 0.15
mRNA (gene EEF2): 0.76
mRNA (gene EIF3H): 0.09
mRNA (gene EIF3L): 0.21
mRNA (gene EIF4B): 0.61
mRNA (gene EVPL): 0.38
mRNA (gene FAM83H): 0.33
mRNA (gene FAM128B): 0.43
mRNA (gene FASN): 0.30
mRNA (gene GLTSCR2): 0.70
mRNA (gene GNB2L1): 0.27
PP242 mRNA (gene GTPBP3): 0.15
mRNA (gene HNRNPA1): 0.27
mRNA (gene HSPA8): −0.40
mRNA (gene IMPDH2): 0.21
mRNA (gene LAMA5): 0.40
mRNA (gene LMF2): 0.62
PP242 mRNA (gene MAPK6): 0.10
PP242 mRNA (gene MAPKAPK2): −0.22
mRNA (gene MTA1): 0.21
mRNA (gene NCLN): 0.29
PP242 mRNA (gene NFATC21P): 0.08
PP242 mRNA (gene NR2F1): 0.87
mRNA (gene PABPC1): 0.16
mRNA (gene PABPC4): 0.40
mRNA (gene PACS1): 0.45
mRNA (gene PFDN5): 0.04
mRNA (gene PGLS): 0.21
mRNA (gene PGM1): 0.23
mRNA (gene PNKP): 0.33
PP242 mRNA (gene PRKD3): −0.46
mRNA (gene PTGES2): 0.17
mRNA (gene RABGGTB): 0.20
PP242 mRNA (gene RBPJ): 0.17
mRNA (gene RPL3): 0.22
mRNA (gene RPL4): 0.10
mRNA (gene RPL7): 0.01
mRNA (gene RPL7A): 0.15
mRNA (gene RPL9): −0.08
mRNA (gene RPL10): 0.25
mRNA (gene RPL10A): 0.14
mRNA (gene RPL11): 0.14
mRNA (gene RPL12): 0.12
mRNA (gene RPL13): 0.26
mRNA (gene RPL13A): 0.30
mRNA (gene RPL15): 0.19
mRNA (gene RPL18A): 0.23
mRNA (gene RPL19): 0.11
mRNA (gene RPL21): −0.04
mRNA (gene RPL22): 0.00
mRNA (gene RPL24): 0.00
mRNA (gene RPL26): 0.02
mRNA (gene RPL27): −0.13
mRNA (gene RPL27A): 0.07
mRNA (gene RPL28): 0.22
PP242 mRNA (gene RPL28): 0.55
mRNA (gene RPL31): 0.05
mRNA (gene RPL32): 0.11
mRNA (gene RPL34): 0.04
mRNA (gene RPL36A): −0.01
mRNA (gene RPL37A): 0.01
mRNA (gene RPL39): −0.15
PP242 mRNA (gene RPL39): −0.42
mRNA (gene RPL41): −0.01
mRNA (gene RPLP0): 0.12
mRNA (gene RPLP1): 0.12
mRNA (gene RPLP2): 0.14
mRNA (gene RPS2): 0.20
mRNA (gene RPS3): 0.24
mRNA (gene RPS3A): −0.06
mRNA (gene RPS4X): 0.12
mRNA (gene RPS5): 0.23
mRNA (gene RPS7): −0.04
mRNA (gene RPS9): 0.34
mRNA (gene RPS12): 0.04
mRNA (gene RPS13): −0.08
mRNA (gene RPS14): 0.16
mRNA (gene RPS15): 0.21
mRNA (gene RPS15A): 0.07
mRNA (gene RPS19): 0.23
mRNA (gene RPS20): −0.01
PP242 mRNA (gene RPS20): −0.10
mRNA (gene RPS21): 0.09
mRNA (gene RPS25): −0.04
mRNA (gene RPS27): 0.07
PP242 mRNA (gene RPS27): 0.06
mRNA (gene RPS27A): −0.04
mRNA (gene RPS28): 0.28
PP242 mRNA (gene SDCCAG10): −0.37
mRNA (gene SLC19A1): 0.10
mRNA (gene TKT): 0.33
mRNA (gene TPT1): 0.01
mRNA (gene TSC2): 0.21
mRNA (gene UBA52): 0.18
PP242 mRNA (gene UBTD2): 0.25
PP242 mRNA (gene UCHL5): −0.51
PP242 mRNA (gene VHL): 0.43
mRNA (gene VIM): 0.67
mRNA (gene YB1): 0.24
